Read-outs that look alike come from different tables or passages of the source. Residues, ends and D or L forms follow the SMILES beside them. *: point of attachment. Fmoc = O=C(OCC1c2ccccc2-c2ccccc21)*; Cbz = O=C(OCc1ccccc1)*; Boc = CC(C)(C)OC(=O)*
What was measured:
[1] = Self-assembly of end-capping modified diphenylalanine peptides, viewed by SEM/TEM; type: physicochemical; conditions: for structures formed by self-assembly (morphology): HFIP stock diluted in ddH2O, SEM/TEM/AFM
Method: (§1) Materials—End capping modified diphenylalanine peptides, presented in Table 3 hereinbelow, were purchase from Bachem (Bubendorf, Switzerland). Fresh stock solutions of the peptides were prepared by dissolving the lyophilized form of the peptides in 1,1,1,3,3,3-hexafluoro-2-propanol (HFIP, Sigma) at a concentration of 100 mg/ml. To avoid any pre-aggregation, fresh stock solutions were prepared for each experiment. The cyclo-Phe-Phe peptide (Peptide 8) was dissolved in HFIP to a concentration of 25 mg/ml and was subjected to ultrasound until a clear solution was obtained. The peptides stock solutions were diluted into a final concentration of 2 mg/ml in ddH2O. The NH2-Phe-Phe-NH2 peptide (Peptide 3) was diluted into a final concentration of 10 mg/ml in ddH2O.
Scanning electron microscopy (SEM) —Immediately after dilution in ddH2O, peptide solution was allowed to dry at room temperature over glass cover slip and coated with gold. Scanning electron microscopy images were obtained using a JSM JEOL 6300 SEM operating at 5 kV.
Transmission Electron microscopy (TEM) —Samples were placed on a 200 mesh copper grid, covered by carbon stabilized formvar film. After 1 minute excess fluid was removed and the grid was thereafter negatively stained with 2% uranyl acetate in water. After 2 minutes, excess fluid was removed from the grid. The samples were viewed in JEOL 1200EX electron microscope operating at 80 kV.
High resolution transmission electron microscopy—Samples were viewed using a Philips Tecnai F20 Field Emission Gun electron microscope operating at 200 kV. EDX analysis was performed with EDAX detector.
High resolution scanning electron microscopy—HRSEM grids were viewed using a JSM-6700 field emission scanning electron microscope equipped with a cold field emission gun operating at 1 kV.

[2] = Fourier transform infrared spectroscopy of the self-assembled structures; type: physicochemical; conditions: FT-IR amide-I region
Method: Fourier Transform Infrared Spectroscopy—Infrared spectra were recorded using a Nicolet Nexus 470 FT-IR spectrometer with a deuterated triglycine sulfate (DTGS) detector. Peptide solution taken from the abovementioned SEM assays were deposited on a CaF2 plate and dried under reduced pressure. The peptide deposits were resuspended with D2O and subsequently dried to form thin films. The resuspension procedure was repeated twice to ensure maximal hydrogen to deuterium exchange. The measurements […] a 4 cm^−1 resolution and averaging of 2000 scans. The transmittance minimal values were determined by the OMNIC analysis program (Nicolet).

[3] = Dissolving the peptides for stock solutions; type: physicochemical; conditions: in water or in fluoroalcohols
Method: as §1

[4] = same conditions, per WO 2004/052773; cited from earlier work
[5] = Atomic force microscope (AFM) imaging of the peptide nanostructures; type: physicochemical; conditions: tapping mode, deposited on mica
Method: Atomic Force Microscope (AFM) imaging—The peptide sample solution was diluted again in ddH2O to a concentration of 1 mg/ml. Then the peptide solution was placed on mica grade and dried in vacuum. Dried sample was analyzed using Molecular Imaging PicoSPM II system in tapping mode.

Compound	structures formed by self-assembly (morphology) [1]	molecular conformation of the self-assembled structures [2]	further results
CC(C)(C)OC(=O)NC(Cc1ccccc1)C(=O)NC(Cc1ccccc1)C(=O)O (stereo not drawn) [Peptide 5, Boc-Phe-Phe-COOH] (Boc-Phe-Phe-OH; configuration not given here)	highly ordered tubular structures	α-helix conformation	
CC(=O)NC(Cc1ccccc1)C(=O)NC(Cc1ccccc1)C(=O)O (stereo not drawn) [Peptide 4, Ac-Phe-Phe-COOH] (Ac-Phe-Phe-OH; configuration not given here)			dissolution [3]: did not dissolve
O=C(NC(Cc1ccccc1)C(=O)NC(Cc1ccccc1)C(=O)O)OCc1ccccc1 (stereo not drawn) [Peptide 7, Cbz-Phe-Phe-COOH] (Cbz-Phe-Phe-OH; configuration not given here)	fibrillar structures	antiparallel β-sheet conformation	
NC(Cc1ccccc1)C(=O)NC(Cc1ccccc1)C(=O)O (stereo not drawn) [Peptide 1, NH2-Phe-Phe-COOH] (H-Phe-Phe-OH; configuration not given here)			structures formed by self-assembly (morphology) [4]: formation of nanotubes
NC(=O)C(Cc1ccccc1)NC(=O)C(N)Cc1ccccc1 (stereo not drawn) [Peptide 3, NH2-Phe-Phe-NH2] (H-Phe-Phe-NH2; configuration not given here)	tubular structures	antiparallel β-sheet conformation	
cyclo-Phe-Phe [Peptide 8]	bundles of tubular structures	either an α-helix or a β-turn conformation	
CC(=O)NC(Cc1ccccc1)C(=O)NC(Cc1ccccc1)C(N)=O (stereo not drawn) [Peptide 2, Ac-Phe-Phe-NH2] (Ac-Phe-Phe-NH2; configuration not given here)	organized and regular tubular structures	β-sheet conformation	diameters of the tubular structures ([1]; SEM, within minutes after dilution of peptide stock into aqueous solution): few microns to less than 100 nanometers; height of nanostructures at the Z-range [5]: about 100 nm
O=C(NC(Cc1ccccc1)C(=O)NC(Cc1ccccc1)C(=O)O)OCC1c2ccccc2-c2ccccc21 (stereo not drawn) [Peptide 6, Fmoc-Phe-Phe-COOH] (Fmoc-Phe-Phe-OH; configuration not given here)	fibrillar structures		

— patent US8796023B2, “Peptide nanostructures containing end-capping modified peptides and methods of generating and using the same” (Ramot at Tel-Aviv University Ltd., priority 2004, dated 2014)
